Measured values: article PMC3692405, “Disease-associated mutations in CNGB3 promote cytotoxicity in photoreceptor-derived cells” (Molecular Vision, 2013)
Residue numbers refer to the chain shown, from its start. Read-outs that look alike come from different tables or passages of the source.

Legend:
Format in all cases: biochemical
Conditions in all cases: in the presence of 0.1 µM CPT-cGMP
[1] = molecular target: T1, WT human CNGA3 plus WT CNGB3 heteromeric channels (Homo sapiens, UniProt Q16281+Q9NQW8); experiment: Inside-out patch-clamp recording of channels expressed in Xenopus oocytes (WT heteromeric)
T1 construct: expressed in transfected cells; host or cells: Xenopus laevis oocytes injected with cRNA transcribed from pGEMHE constructs
T1 sequence (Q16281 1-694): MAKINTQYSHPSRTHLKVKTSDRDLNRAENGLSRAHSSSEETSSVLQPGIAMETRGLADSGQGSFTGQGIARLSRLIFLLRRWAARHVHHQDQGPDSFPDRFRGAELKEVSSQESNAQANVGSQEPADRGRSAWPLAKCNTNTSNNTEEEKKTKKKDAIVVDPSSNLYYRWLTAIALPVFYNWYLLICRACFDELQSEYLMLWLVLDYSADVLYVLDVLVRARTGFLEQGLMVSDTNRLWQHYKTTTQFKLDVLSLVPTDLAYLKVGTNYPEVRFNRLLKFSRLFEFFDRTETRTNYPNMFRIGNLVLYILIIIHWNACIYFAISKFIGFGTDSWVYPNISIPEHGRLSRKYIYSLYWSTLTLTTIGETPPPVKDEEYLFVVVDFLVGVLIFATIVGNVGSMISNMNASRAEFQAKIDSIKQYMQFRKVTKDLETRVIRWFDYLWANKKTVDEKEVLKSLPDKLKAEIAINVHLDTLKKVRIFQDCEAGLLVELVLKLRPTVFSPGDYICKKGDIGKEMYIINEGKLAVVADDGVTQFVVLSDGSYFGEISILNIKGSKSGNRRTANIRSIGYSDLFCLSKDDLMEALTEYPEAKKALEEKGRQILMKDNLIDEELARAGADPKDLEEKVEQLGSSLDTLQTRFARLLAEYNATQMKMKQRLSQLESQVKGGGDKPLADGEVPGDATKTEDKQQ
T1 sequence (Q9NQW8 1-809): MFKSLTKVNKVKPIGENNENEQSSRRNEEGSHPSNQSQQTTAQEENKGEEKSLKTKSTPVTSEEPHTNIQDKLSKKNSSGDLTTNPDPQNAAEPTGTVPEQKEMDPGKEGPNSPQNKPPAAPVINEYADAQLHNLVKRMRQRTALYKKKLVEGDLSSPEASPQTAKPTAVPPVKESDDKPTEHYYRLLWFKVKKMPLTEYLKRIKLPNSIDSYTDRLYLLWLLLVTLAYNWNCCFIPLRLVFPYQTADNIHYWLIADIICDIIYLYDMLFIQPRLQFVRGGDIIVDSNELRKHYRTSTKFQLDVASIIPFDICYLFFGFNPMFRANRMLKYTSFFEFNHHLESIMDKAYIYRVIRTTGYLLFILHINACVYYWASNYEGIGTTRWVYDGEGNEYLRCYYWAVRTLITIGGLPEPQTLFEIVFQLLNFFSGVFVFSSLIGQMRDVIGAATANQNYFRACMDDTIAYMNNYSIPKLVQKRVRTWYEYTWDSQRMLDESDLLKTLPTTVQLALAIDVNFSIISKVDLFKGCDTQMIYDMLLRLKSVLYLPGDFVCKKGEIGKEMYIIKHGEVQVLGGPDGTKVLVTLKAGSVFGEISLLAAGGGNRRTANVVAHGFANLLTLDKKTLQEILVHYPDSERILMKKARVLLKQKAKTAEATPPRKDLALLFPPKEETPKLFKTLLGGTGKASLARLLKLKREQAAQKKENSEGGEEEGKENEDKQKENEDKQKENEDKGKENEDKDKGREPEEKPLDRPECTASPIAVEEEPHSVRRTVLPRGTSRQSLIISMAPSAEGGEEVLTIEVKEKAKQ
Method: (§1) For heterologous expression in Xenopus laevis oocytes, identical amounts of cDNA were linearized using SphI or NheI, and capped cRNA was transcribed in vitro using the T-7 RNA polymerase mMESSAGE mMACHINE® kit (Ambion, Austin, TX). cRNA concentrations and relative amounts were determined by denaturing gel electrophoresis and KODAK 1D image analysis software (Rochester, NY), as well as by spectrophotometry. […] Oocytes were incubated in ND96 (96 mM NaCl, 2 mM KCl, 1.8 mM CaCl2, 1 mM MgCl2, and 5 mM HEPES, pH 7.6, supplemented with 10 μg/ml gentamycin).
(§2) Two to seven days after microinjection of cRNA, patch-clamp experiments were performed using the inside-out configuration with an Axopatch 200B amplifier (Axon Instruments, Foster City, CA). Recordings were made at 20–23 °C. Data were acquired using Pulse software (HEKA Elektronik, Lambrecht, Germany). Current traces were elicited by voltage steps from a holding potential of 0 mV to +80 mV, then to −80 mV and back to 0 mV. Initial pipette resistances were 0.4–0.8 megaohms. Intracellular and extracellular solutions contained 130 mM NaCl, 0.2 mM EDTA, and 3 mM HEPES (pH 7.2). Intracellular solutions were exchanged using an RSC-160 rapid solution changer (Molecular Kinetics, Indianapolis, IN). Currents in the absence of cyclic nucleotides were subtracted. For channel activation by CPT-cGMP or CPT-cAMP, dose–response data were fitted with the Hill equation, I/Imax=([cNMP]^h/(K1/2^h + [cNMP]^h)), where I is the current amplitude at +80 mV, Imax is the maximum current elicited by saturating concentration of ligand, [cNMP] is the ligand concentration, K1/2 is the apparent ligand affinity, and h is the Hill slope. We measured sensitivity to block by L-cis-diltiazem (RBI, Natick, MA) applied to the intracellular face of the patch in the presence of 0.1 μM CPT-cGMP. Data were fit with a modified Hill equation in the form I blocker/I=(K1/2^h/(K1/2^h + [blocker]^h)). Data were analyzed using Igor (Wavemetrics, Lake Oswego, OR), SigmaPlot, and SigmaStat (Systat Software Inc., San Jose, CA). All values are reported as the mean±standard error of the mean of n experiments unless otherwise indicated. Statistical significance was determined using a Student t test or Mann–Whitney rank sum test, and a p value of <0.05 was considered significant.

[2] = molecular target: T2, CNGA3 plus CNGB3-F525N channels (Homo sapiens, UniProt Q16281+Q9NQW8, F525N); experiment: Inside-out patch-clamp recording of channels expressed in Xenopus oocytes (CNGB3 F525N)
T2 construct: expressed in transfected cells; host or cells: Xenopus laevis oocytes injected with cRNA transcribed from pGEMHE constructs
T2 sequence (Q16281 1-694): T1 sequence (Q16281 1-694)
T2 sequence (Q9NQW8 1-809 F525N): T1 sequence (Q9NQW8 1-809) with F525N
Method: as §1, §2

[3] = molecular target: T3, CNGA3 plus CNGB3 T383fsX channels (Homo sapiens, UniProt Q16281); experiment: Inside-out patch-clamp recording of channels expressed in Xenopus oocytes (CNGB3 T383fsX)
T3 construct: expressed in transfected cells; host or cells: Xenopus laevis oocytes injected with cRNA transcribed from pGEMHE constructs
T3 sequence (Q16281 1-694): T1 sequence (Q16281 1-694)
Method: as §1, §2

[4] = Figure 6B, read-out: K1/2,L-cis-dilt., dose-response fit of Figure 6B
[5] = intracellular face, mean±SEM, n=5, read-out: apparent affinity for L-cis-diltiazem K1/2, L-cis-dilt. (channel block)

- Hill slope h, block by L-cis-diltiazem, Figure 6B ([1]; Figure 6B): 0.5
- IC50 [1, 4]: 4.1 µM
- IC50 [1, 5]: 4.06 ± 1 µM
- Hill slope h, block by L-cis-diltiazem, Figure 6B ([2]; Figure 6B): 0.7
- IC50 [2, 4]: 4.2 µM
- IC50 [2, 5]: 3.03 ± 0.75 µM
- Hill slope h, block by L-cis-diltiazem, Figure 6B ([3]; Figure 6B): 0.3
- IC50 [3, 4]: 135 µM
- IC50 ([3]; intracellular face, mean±SEM, n=4, read-out: apparent affinity for L-cis-diltiazem K1/2, L-cis-dilt. (channel block)): 77.9 ± 23.1 µM
SMILES: COc1ccc([C@@H]2Sc3ccccc3N(CCN(C)C)C(=O)[C@@H]2OC(C)=O)cc1 [L-cis-diltiazem]
